Laboratory results published in article PMC5715595 (British Journal of Pharmacology, 2017).

What was measured:
Kv11.1 (hERG) channel = Kv11.1 (hERG) channel (Homo sapiens, UniProt Q12809); experiment: cell-based
Method: A whole‐cell patch clamp study was performed on isolated cells at room temperature. Cells were initially clamped at −80 mV, and biphasic pulses (4.8 s at +20 mV and then for 5 s at −50 mV) were applied at a 0.067 Hz frequency. […] Peak tail current amplitudes for each concentration were measured and averaged for four consecutive stimuli. Vehicle control tested in parallel evaluated the spontaneous run‐down of hERG current over time in testing conditions and the corresponding correction was applied.

rabbit Purkinje fibres [1] = experiment: Action potential parameters in rabbit Purkinje fibres; type: cell-based
Method: (§1) Following a lethal dose of pentobarbital, the hearts of male New Zealand rabbits were immediately excised and immersed in a modified Tyrode solution maintained at room temperature and previously saturated with O2/CO2 (95%/5%). A piece of ventricle containing free running Purkinje fibres was fixed to the silastic bottom of an organ bath perfused with the same solution maintained at 37°C for 30 min. The preparation was then superfused with the modified Tyrode solution and stimulated for 30 min at 2 Hz and then at 1 Hz (2 ms stimulus at twice threshold). […] After a stabilization period of at least 1 h, action potentials typical for Purkinje fibres were recorded. Action potential reproducibility and stability were confirmed during a further 20 min stabilization period. […] Each was applied for 20 min to enable steady state to be reached. In addition, the emergence of early after‐depolarizations (EADs), favoured by calcium loading during the late phase 2 of the prolonged action potential, is recognized as a better marker of pro‐arrhythmic potential than APD prolongation alone.

NaV1.5 = NaV1.5 (Homo sapiens, UniProt Q14524); experiment: cell-based
NaV1.5, sequence (Q14524 whole entry): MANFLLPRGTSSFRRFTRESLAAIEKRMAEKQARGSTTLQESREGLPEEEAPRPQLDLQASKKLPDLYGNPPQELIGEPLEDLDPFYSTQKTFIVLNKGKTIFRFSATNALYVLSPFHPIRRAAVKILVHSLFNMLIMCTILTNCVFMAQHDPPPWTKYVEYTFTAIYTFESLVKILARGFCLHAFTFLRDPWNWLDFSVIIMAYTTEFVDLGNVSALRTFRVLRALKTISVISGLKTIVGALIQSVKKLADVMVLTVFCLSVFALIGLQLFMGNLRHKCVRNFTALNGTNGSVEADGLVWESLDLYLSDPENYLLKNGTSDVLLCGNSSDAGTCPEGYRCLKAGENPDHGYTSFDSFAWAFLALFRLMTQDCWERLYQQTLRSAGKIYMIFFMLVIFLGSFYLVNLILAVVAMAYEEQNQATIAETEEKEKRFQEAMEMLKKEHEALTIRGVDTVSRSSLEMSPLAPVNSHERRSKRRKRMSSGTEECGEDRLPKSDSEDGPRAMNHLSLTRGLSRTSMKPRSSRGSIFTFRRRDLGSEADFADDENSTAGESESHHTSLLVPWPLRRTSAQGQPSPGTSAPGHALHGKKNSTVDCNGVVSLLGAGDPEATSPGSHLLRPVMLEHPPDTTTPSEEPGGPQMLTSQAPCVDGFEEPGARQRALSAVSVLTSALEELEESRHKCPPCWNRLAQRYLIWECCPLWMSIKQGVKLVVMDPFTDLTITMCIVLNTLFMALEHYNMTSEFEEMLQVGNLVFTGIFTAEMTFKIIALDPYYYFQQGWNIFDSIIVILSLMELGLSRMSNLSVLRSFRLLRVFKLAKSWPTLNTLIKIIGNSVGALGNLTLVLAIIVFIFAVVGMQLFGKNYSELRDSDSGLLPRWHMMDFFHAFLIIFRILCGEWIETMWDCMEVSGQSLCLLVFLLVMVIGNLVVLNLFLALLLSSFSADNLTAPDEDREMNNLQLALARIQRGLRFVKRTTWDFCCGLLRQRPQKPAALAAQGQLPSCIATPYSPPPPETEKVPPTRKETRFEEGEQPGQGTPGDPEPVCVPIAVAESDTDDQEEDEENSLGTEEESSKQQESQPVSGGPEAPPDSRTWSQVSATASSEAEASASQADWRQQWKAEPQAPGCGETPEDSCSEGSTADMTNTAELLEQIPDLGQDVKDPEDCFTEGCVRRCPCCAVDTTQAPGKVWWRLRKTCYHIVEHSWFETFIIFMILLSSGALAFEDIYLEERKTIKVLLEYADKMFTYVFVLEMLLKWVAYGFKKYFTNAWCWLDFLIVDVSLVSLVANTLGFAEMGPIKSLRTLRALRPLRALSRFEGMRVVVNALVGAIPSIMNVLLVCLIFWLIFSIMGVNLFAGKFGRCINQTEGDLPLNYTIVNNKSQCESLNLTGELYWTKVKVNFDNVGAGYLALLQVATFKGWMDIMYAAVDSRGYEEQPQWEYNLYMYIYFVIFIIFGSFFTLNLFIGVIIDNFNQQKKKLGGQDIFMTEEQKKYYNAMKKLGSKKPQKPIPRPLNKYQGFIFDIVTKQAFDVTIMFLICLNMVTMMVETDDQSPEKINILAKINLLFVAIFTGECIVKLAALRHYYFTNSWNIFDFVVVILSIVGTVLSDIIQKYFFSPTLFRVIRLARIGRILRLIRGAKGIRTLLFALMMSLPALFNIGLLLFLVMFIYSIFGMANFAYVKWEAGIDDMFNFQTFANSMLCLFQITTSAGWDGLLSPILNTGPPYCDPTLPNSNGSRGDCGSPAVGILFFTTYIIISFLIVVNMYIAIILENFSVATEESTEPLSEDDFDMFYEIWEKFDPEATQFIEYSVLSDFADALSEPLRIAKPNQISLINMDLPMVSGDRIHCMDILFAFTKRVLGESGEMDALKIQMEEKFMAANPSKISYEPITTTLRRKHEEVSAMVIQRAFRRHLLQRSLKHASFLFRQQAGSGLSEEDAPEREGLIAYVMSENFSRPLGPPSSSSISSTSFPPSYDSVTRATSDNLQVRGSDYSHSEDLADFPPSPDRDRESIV
Method: (§2) and CiPA Initiative Studies
(§3) =============================================================
(§4) In vitro studies on other ion channels […]
(§5) through NaV1.5, KV4.3, KV7.1/mink, Kir2.1, KV1.5, CaV1.2 and CaV3.2 channels.
(§6) 35-mm dish culture in the conditions mentioned in standard cell culture conditions. Experiments were performed with a cell density enabling isolated cells for patch clamping. Cells were continuously superfused with extracellular medium (1-2 mL∙minute-1) at room temperature.
(§7) D-glucose 10, HEPES 10 and the final pH adjusted to 7.4±0.02 with NaOH for recording NaV1.5, KV4.3, KV7.1/mink, Kir2.1, KV1.5 and CaV3.2 currents. It was (in mM): NaCl 110, KCl 4, BaCl2 20, MgCl2 1, D-glucose 20, HEPES 10 and the final pH adjusted to 7.4 ± 0.02 with NaOH for recording the CaV1.2 current. Compositions of the intracellular solution to fill the pipette are […]
(§8) Composition of intracellular solutions used to fill pipette to record currents through NaV1.5, KV4.3, KV7.1/mink, Kir2.1, KV1.5, CaV1.2 and CaV3.2 channels
(§9) Solution to fill the pipette (mM)
(§10) Creatine-phospho kinase 50 U∙mL-1
(§11) After formation of a Gigaohm seal between the patch electrodes and individual cells (pipette resistance range: 2.0 MΩ - 7.0 MΩ; seal resistance range: > 1 GΩ) the cell membrane across the pipette tip was ruptured to assure electrical access to the cell interior (whole-cell patch-configuration). In case the quality of the seal was poor, the process of seal formation was repeated with a different cell and a new pipette. As soon as a stable seal was established outward tail currents were measured upon pulses described in the Table S2. If current density was judged to be too low for measurement, another cell was recorded. […]
(§12) voltage stimulation protocol indicated in the next table continuously run until the steady-state level of block was reached.
(§13) Stimulation conditions used to record currents through NaV1.5, KV4.3, KV7.1/mink, Kir2.1, KV1.5, CaV1.2 and CaV3.2 channels
(§14) Ion channel Holding potential Pulse / duration Frequency Reference compound […]
(§15) (resting / fast / slow sweeps at one (10 mM) inactivated concentration)

CaV1.2 = CaV1.2 (Homo sapiens, UniProt Q13936); experiment: cell-based
Method: as §2, §3, §4, §5, §6, §7, §8, §9, §10, §11, §12, §13, §14, §15

rabbit Purkinje fibres [2] = experiment: Dofetilide-induced early after-depolarizations and triggered activity in rabbit Purkinje fibres; type: cell-based; conditions: for APD90: 0.25 Hz
Method: as §1

[3] = 10 μM pitolisant, dofetilide 0.1 μM

Kv11.1 (hERG) channel, sequence (Q12809 whole entry): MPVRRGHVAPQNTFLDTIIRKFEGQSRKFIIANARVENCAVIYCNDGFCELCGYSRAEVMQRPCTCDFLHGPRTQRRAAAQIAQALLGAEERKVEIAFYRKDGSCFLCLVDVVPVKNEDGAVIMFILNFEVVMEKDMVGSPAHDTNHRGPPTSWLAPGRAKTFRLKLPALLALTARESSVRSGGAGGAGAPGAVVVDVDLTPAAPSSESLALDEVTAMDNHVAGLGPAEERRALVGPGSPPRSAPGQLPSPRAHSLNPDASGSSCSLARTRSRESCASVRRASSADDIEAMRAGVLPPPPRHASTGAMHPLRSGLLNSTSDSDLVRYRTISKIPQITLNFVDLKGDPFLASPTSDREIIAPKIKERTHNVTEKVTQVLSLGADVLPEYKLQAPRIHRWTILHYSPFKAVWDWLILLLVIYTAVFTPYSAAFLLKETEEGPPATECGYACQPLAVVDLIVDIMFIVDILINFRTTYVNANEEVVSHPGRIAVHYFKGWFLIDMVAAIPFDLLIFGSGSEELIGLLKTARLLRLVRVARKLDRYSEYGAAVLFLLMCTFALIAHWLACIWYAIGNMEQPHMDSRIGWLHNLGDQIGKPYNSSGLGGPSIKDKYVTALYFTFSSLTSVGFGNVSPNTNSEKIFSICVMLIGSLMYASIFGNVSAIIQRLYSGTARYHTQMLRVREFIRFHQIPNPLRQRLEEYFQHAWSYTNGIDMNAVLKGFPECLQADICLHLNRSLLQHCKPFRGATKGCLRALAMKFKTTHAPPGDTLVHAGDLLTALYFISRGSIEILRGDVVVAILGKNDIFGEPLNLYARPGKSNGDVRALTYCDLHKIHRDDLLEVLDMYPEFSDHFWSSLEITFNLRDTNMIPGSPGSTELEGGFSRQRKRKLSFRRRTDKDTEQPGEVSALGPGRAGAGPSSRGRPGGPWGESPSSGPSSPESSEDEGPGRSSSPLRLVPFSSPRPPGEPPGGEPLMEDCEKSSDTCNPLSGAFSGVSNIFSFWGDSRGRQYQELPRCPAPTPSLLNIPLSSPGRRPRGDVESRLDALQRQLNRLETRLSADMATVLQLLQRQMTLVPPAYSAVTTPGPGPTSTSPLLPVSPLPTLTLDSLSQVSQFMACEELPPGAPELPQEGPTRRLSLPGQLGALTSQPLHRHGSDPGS

In the case of Cl.Clc1ccc(CCCOCCCN2CCCCC2)cc1 [pitolisant, 1‐{3‐[3‐(4‐chlorophenyl)propoxy]propyl}piperidine, hydrochloride], the IC50 (Kv11.1 (hERG) channel) is reported as 1.3 µM, the “safety margin (hERG IC50 versus free drug concentration)” value (Kv11.1 (hERG) channel; assuming 96% protein-binding and free concentration of […] at 40 mg maximal therapeutic dose) is reported as “around 100” and the “effects on electrophysiological parameters of the action potential” value (rabbit Purkinje fibres [1]; 1 μM) is reported as “only minimal effects”. For the same compound, the “change in APA” value (rabbit Purkinje fibres [1]; 10 μM) was −8 ± 3%, the “change in APD50 vs. the control” value (rabbit Purkinje fibres [1]; 10 μM) was −27 ± 4% and the “change in Vmax” value (rabbit Purkinje fibres [1]; 10 μM) was −17 ± 5%. For the same compound, the “change in resting RMP vs. the control” value (rabbit Purkinje fibres [1]; 10 μM) was −6 ± 1%, the “change in APD90 vs. the control” value (rabbit Purkinje fibres [1]; 10 μM, non-significant) was “+9 ± 5%” and the IC50 (rabbit Purkinje fibres [1]; Oryctolagus cuniculus, purkinje, estimated from 27% decrease in APD50 at 10 μM) was ~5 µM. For the same compound, the IC50 (NaV1.5; Fitted IC50, fit to fast inactivated Nav1.5) was 26.3 µM, the IC50 (NaV1.5; Fitted IC50, fit to slow inactivated Nav1.5) was 26.5 µM and the IC50 (NaV1.5; Fitted IC50, mean of fits to fast and slow inactivated Nav1.5, used for the whole Nav1.5 current, Hill coefficient of one) was 26.4 µM. The IC50 (NaV1.5; Pitolisant IC50, NaV1.5 fast inactivated state, INa) was ≥ 10 µM, the IC50 (NaV1.5; Pitolisant IC50, NaV1.5 resting state, INa) was > 10 µM and the IC50 (NaV1.5; Pitolisant IC50, NaV1.5 slow inactivated state, INa) was ≥ 10 µM. For the same compound, the IC50 (CaV1.2; Fitted IC50, CaV1.2 ICaL, Hill curve fit with Hill coefficient of one) was 9.5 µM, the IC50 (CaV1.2; Pitolisant IC50, CaV1.2, ICaL) was ~10 µM and the “effect on dofetilide-induced EADs” value (rabbit Purkinje fibres [2]; 1 μM pitolisant, dofetilide 0.1 μM) was “no effect (in four out of four experiments)”. The “inhibition of dofetilide-induced EADs (experiments)” value (rabbit Purkinje fibres [2]; 3 μM pitolisant, dofetilide 0.1 μM) was “two out of three”, the “suppression of dofetilide-induced EADs (experiments)” value (rabbit Purkinje fibres [2]; [3]) was “all seven” and the “suppression of dofetilide-induced spontaneous triggered activity (experiments)” value (rabbit Purkinje fibres [2]; [3]) was “one out of one”. It also gave an APD90 (rabbit Purkinje fibres [2]; dofetilide 0.1 μM for 1 h10 and pitolisant 10 μM for 15 min) of 275 ms and an APD90 (rabbit Purkinje fibres [2]; dofetilide 0.1 μM for 55 min and pitolisant 1 μM for 20 min) of 598 ms.
